In patent publication EP0311107A2, “Anti-HIV active 3'-fluoro-purine-2',3'-dideoxyribosides” (priority 1987, dated 1989):
Where two headings read alike, the source gives them in different places. Marks after values point to notes of the source that are not given here.

What was measured:
[1] = target: T1, beef intestine adenosine deaminase (ADA) (Bos taurus, UniProt P56658); details: data taken from Balzarini, J. et al (1987c); cited from earlier work
T1 construct: Kinetic properties of beef intestine adenosine deaminase for 2,6-diaminopurine 2′,3′-dideoxynucleoside analogues; purchased Boehringer Mannheim, Mannheim, West Germany; host or cells: beef intestine (tissue-derived enzyme)
T1 sequence (P56658 1-363): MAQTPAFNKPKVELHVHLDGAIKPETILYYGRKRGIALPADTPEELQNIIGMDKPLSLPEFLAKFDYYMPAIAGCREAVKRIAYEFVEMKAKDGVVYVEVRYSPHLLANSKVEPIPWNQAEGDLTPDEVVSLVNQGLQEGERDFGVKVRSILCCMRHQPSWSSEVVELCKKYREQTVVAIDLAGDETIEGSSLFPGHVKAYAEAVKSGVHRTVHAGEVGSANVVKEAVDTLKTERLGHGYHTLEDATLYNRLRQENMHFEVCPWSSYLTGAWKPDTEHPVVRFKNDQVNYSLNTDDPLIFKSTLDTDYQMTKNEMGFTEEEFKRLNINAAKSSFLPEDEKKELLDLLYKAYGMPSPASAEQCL

HIV (HTLV-IIIB) = test: HIV-induced cytopathogenicity in MT4 cells (viable cell count by trypan blue exclusion after 5 days); assay type: cell-based; details: for EC50: Human immunodeficiency virus 1, IIIB; for HIV-induced cytopathogenicity in MT4 cells S.I.: selectivity index, ratio of 50% cytotoxic dose to 50% antivirally effective dose, 7200 min
Description: (§1) For the determination of the cytopathic effect of HIV in human T-lymphocyte MT4 cells, MT4 cells, subcultured one day before the start of the experiment, were adjusted at 5 x 10⁵ cells/ml and infected with HIV (HTLV-IIIB) at 100 CCID₅₀/ml. Then, 100 µl of the infected cell suspension was brought into wells of a microtiter tray containing 100 µl of various dilutions of the test compounds. After 5 days incubation at 37°C, the number of viable cells was recorded microscopically in a hematocytometer by trypan blue exclusion.
(§2) A series of novel 2,6-diaminopurine and guanine 2′,3′-dideoxynucleoside analogues in which the 2′,3′-dideoxyribose moiety is substituted by a 3′-fluoro group, or replaced by arabinose or 2′-deoxyxylose were evaluated for their effect on the transformation of C3H mouse embryo cells by Moloney murine sarcoma virus (MSV) (Table 1) and the cytopathogenicity induced by HIV in human T4 lymphocyte MT4 cells (Table 1, Fig. 2).

in vitro [2] = assay type: cell-based; details: human, mt4 cells
Description: as §1
Its anti-HIV activity is also higher than that found for its corresponding 2,6-diaminopurine derivative FddDAPR.

[3] = tested on: Moloney murine sarcoma virus (MSV); test: MSV-induced C3H cell transformation; assay type: cell-based; details: for EC50: Moloney murine sarcoma virus, C3H; for MSV-induced C3H cell transformation S.I.: selectivity index, ratio of 50% cytotoxic dose to 50% antivirally effective dose
Description: For transformation of C3H mouse embryo cells by Molo ney murine sarcoma virus (MSV), confluent monolayers of C3H cells in 1 ml wells of Tissue Culture Cluster plates were infected wiht 150 foci-forming units of MSV during 90 min, whereafter medium was replaced by 1 ml fresh culture medium containing different concentrations of test compound. After 6-7 days incubation at 37°C, transformation of the cell cultures was monitored microscopically.
as §2

in vitro [4] = assay type: cell-based; details: mouse, c3h cells
HIV = test: Inhibition of HIV antigen expression in infected H9 or HUT-78 cells (indirect immunofluorescence, laser flow cytofluorography); assay type: cell-based; details: Human immunodeficiency virus 1, HuT78; H9 and HUT-78 cells; data not shown; read-out: concentration achieving 50% inhibition of HIV-induced antigen expression
From the text: The inhibitory effects of the test compounds on HIV antigen expression in infected H9 or HUT-78 cells were determined at day 8 and 14, respectively after infection, by indirect immunofluorescence and laser flow cytofluorography using a polyclonal antibody as probe, as previously described (Pauwels, R. et al, (1987)).
To confirm our anti-HIV data obtained in the MT4 cell model, we also evaluated the 3′-fluorinated ddDAPR derivatives in two other human T4 lymphocyte cell lines (H9 and HUT-78) for their inhibitory effect on viral antigen expression (data not shown). In these experiments, FddDAPR achieves 50% inhibition of HIV-induced antigen expression at a concentration range of 0.05 - 1.0 µM. This concentration range is lower than that required to inhibit HIV-induced cytopathogenicity in MT4 cells.

B-lymphoblast Raji = test: Cytostatic effect against Raji cells; assay type: cell-based; details: Homo sapiens, read-out: Inhibitory dose-50 Raji
Description: (§3) The cultivation of Raji, Molt/4F, CEM, H9, HUT-78 and MT4 cells has been described in Balzarini, J, et al, Biochem. Biophys. Res. Commun. 136:64-71 (1986b) and Pauwels, R. et al, J. Virol. Methods, 16:171-185 (1987).
(§4) The cytostatic effects of the compounds listed in Table 1 were examined against several human B-lymphoblast Raji, T-lymphoblast Molt/4F and T-lymphocyte CEM, H9 and MT4 cell lines (Table 2). […] In no case is the ID₅₀ of the compounds for tumor cell proliferation lower than 60 µM. FddGuo is slightly more cytostatic than FddDAPR (ID₅₀ : 190 to 228 µM, and 233 to >1000 µM, respectively). XylodDAPR and araDAPR are devoid of any anti-cellular activity, even when tested at a concentration as high as 1000 µM.

T-lymphoblast Molt/4F = test: Cytostatic effect against Molt/4F cells; assay type: cell-based; details: Homo sapiens, read-out: Inhibitory dose-50 Molt/4F
From the text: The cultivation of Raji, Molt/4F, CEM, H9, HUT-78 and MT4 cells has been described in Balzarini, J, et al, Biochem. Biophys. Res. Commun.
The cytostatic effects of the compounds listed in Table 1 were examined against several human B-lymphoblast Raji, T-lymphoblast Molt/4F and T-lymphocyte CEM, H9 and MT4 cell lines (Table 2).

T-lymphocyte CEM [5] = test: Cytostatic effect against CEM cells; assay type: cell-based; details: Homo sapiens, CCRF-CEM, read-out: Inhibitory dose-50 CEM
Description: as §3, §4

H9 = test: Cytostatic effect against H9 cells; assay type: cell-based; details: Homo sapiens, read-out: Inhibitory dose-50 H9
Description: as §3, §4

MT4 [6] = test: Cytostatic effect against MT4 cells; assay type: cell-based; details: Homo sapiens, read-out: Inhibitory dose-50 MT4
Description: as §3, §4

[7] = target: T1, beef intestine adenosine deaminase (ADA); test: Substrate kinetics for deamination by adenosine deaminase; assay type: biochemical
From the text: All four ddDAPR analogues were examined for their susceptibility to deamination by beef intestine adenosine de aminase (ADA).

T-lymphocyte CEM [8] = test: Cytostatic effect against CEM cells; assay type: cell-based; details: Homo sapiens, read-out: Inhibitory dose-50 CEM
MT4 [9] = test: Cytostatic effect against MT4 cells; assay type: cell-based; details: Homo sapiens, read-out: Inhibitory dose-50 MT4; remark: listed apart in the source
[10] = tested on: human B-lymphoblast Raji, T-lymphoblast Molt/4F and T-lymphocyte CEM, H9 and MT4 cell lines; test: Cytostatic effects, summary over the human B- and T-cell lines; assay type: cell-based; details: range over the cell lines, read-out: ID₅₀ for tumor cell proliferation
Description: as §3, §4

[11] = MT4, 120 h, MT4 cells, 5 days at 37°C, read-out: HIV-induced cytopathogenicity in MT4 cells ED₅₀
[12] = C3H cells, 6-7 days at 37°C, read-out: MSV-induced C3H cell transformation ED₅₀
[13] = presence of DCF (10 µM preincubation)

Structure (SMILES) | EC50 (HIV (HTLV-IIIB); [11]) [µM] | HIV-induced cytopathogenicity in MT4 cells S.I. (HIV (HTLV-IIIB)) | CC50 at 120 h (in vitro [2]) [µM] | EC50 [3, 12] [µM] | MSV-induced C3H cell transformation S.I. [3] | CC50 (in vitro [4]) [µM] | IC50 (B-lymphoblast Raji) [µM] | IC50 (T-lymphoblast Molt/4F; Molt/4F) [µM] | IC50 (T-lymphocyte CEM [5]) [µM] | IC50 (H9) [µM] | IC50 (MT4 [6]) [µM] | Vmax [7] [µmole/mg proten/min] | other results
Nc1ncnc2c1ncn2[C@@H]1O[C@H](CO)[C@@H](O)[C@H]1O [Ado, adenosine] | – | – | – | – | – | – | – | – | – | – | – | – | Vmax [1]: 287^a µmole/mg proten/min
Nc1nc(N)c2ncn([C@H]3C[C@H](F)[C@@H](CO)O3)c2n1 [FddDAPR, 3′-fluoro-2,6-diaminopurine 2′,3′-dideoxyriboside] | 4.5 | 80 | 360 | 28 | > 15 | > 400 | 753 | 425 | 233 | 377 | 337 | 31 | EC50 (HIV (HTLV-IIIB); MT4, presence of 10 µM DCF (2′-deoxycoformycin), read-out: Effective dose-50 HIV-induced cytopathogenicity in MT4 cells): 39 µM; EC50 (HIV (HTLV-IIIB); MT4, without DCF (Table 3), read-out: Effective dose-50 HIV-induced cytopathogenicity in MT4 cells): 4.5 µM; EC50 ([3]; presence of 10 µM DCF (2′-deoxycoformycin), read-out: Effective dose-50 MSV-induced C3H cell transformation): 87 µM; EC50 ([3]; without DCF (Table 3), read-out: Effective dose-50 MSV-induced C3H cell transformation): 31 µM; EC50 (HIV): 0.05 to 1 µM; IC50 (T-lymphoblast Molt/4F; [13]): 865 µM; IC50 (T-lymphoblast Molt/4F; without DCF (Table 4)): 353 µM; IC50 (T-lymphocyte CEM [8]; [13]): 739 µM; IC50 (T-lymphocyte CEM [8]; without DCF (Table 4)): 241 µM; IC50 (MT4 [9]; MT4, presence of DCF (10 µM preincubation)): 520 µM; IC50 (MT4 [9]; MT4, without DCF (Table 4)): 469 µM
Nc1nc2c(ncn2[C@H]2C[C@H](F)[C@@H](CO)O2)c(=O)[nH]1 [FddGuo, 3′-fluoro-2′,3′-dideoxyguanosine] | 2.4 | 96 | 231 | 12 | > 23 | > 400 | 107 | 228 | 119 | 194 | 197 | – | IC50 [10]: 190 to 228 µM
Nc1nc(N)c2ncn([C@H]3C[C@@H](O)[C@@H](CO)O3)c2n1 [XylodDAPR] | > 125 | – | > 625 | > 400 | – | > 400 | > 1000 | > 1000 | > 1000 | > 1000 | > 1000 | 3.7 | anti-HIV activity (HIV (HTLV-IIIB); HIV-induced cytopathogenicity in MT4 cells, result in words): devoid of any anti-HIV activity
